Solubility and IC50 data for 17 compounds are collected here from patent US20200289514A1, “Novel Pyrazolo Pyrimidine Derivatives” (Novartis AG, priority 2015, published 2020).

Data set [1] is described as follows: Solubility in aqueous and biorelevant media. In kind it is physicochemical. The note with it: read-out: Solubility (mg/mL) [pH].
The test system of another data set is Human IL2 promoter. Kind of data set: Human IL2 promoter reporter gene assay (RGA) in Jurkat cells. In kind it is cell-based. The note with it: Jurkat clone K22 290_H23, anti-CD28 mAb + PMA, 5.5 h. On the procedure:
Human IL2 Promoter Reporter Gene Assay (RGA) in Jurkat Cells
The transfected Jurkat clone K22 290_H23 was propagated in RPMI 1640 supplemented with 10% heat inactivated fetal calf serum, 50 μM 2-mercaptoethanol and 1 mg/ml Geneticin. The cell concentration should not exceed 1×10e6/ml during culturing. The cells should not exceed passage 30. Prior to the assay the cells were washed and prepared to the concentration of 2×10e6 cells/ml.
Compound dilutions were made as 2×-concentrated solutions then diluted ½ by addition to cells. Two hundred and fifty μl of compound dilution and 250 μl of cells were mixed together in wells of a 96-deep well plate. Cells/compounds premix were incubated 30 min at 37° C. and 5% CO2 directly in the deep well plate.
After pre-incubation of cells with compounds, cells were stimulated with anti-CD28 mAb (clone 15E8) at 3 μg/ml+PMA at 1 μg/ml. Both co-stimulants were diluted in culture medium at a 10×-concentrated solution. 10 μl of co-stimulants were pipetted into the white 96-well plates and 100 μl of cell/compound mix was immediately added in duplicates. The cells were stimulated for 5.5 h at 37° C. and 5% CO2.
After cell stimulation, 50 μl of BriteLitePlus reagent (Perkin Elmer) was added to each well and the bioluminescence was measured with a Wallac EnVision reader (Perkin Elmer).
(In a reporter assay the amount or activity of a reporter protein is the signal.)

The target in data set [2] is T1, C-domain of MALT1 (amino acids 329-824) (Homo sapiens, UniProt Q9UDY8).
T1 sequence (Q9UDY8 329-824): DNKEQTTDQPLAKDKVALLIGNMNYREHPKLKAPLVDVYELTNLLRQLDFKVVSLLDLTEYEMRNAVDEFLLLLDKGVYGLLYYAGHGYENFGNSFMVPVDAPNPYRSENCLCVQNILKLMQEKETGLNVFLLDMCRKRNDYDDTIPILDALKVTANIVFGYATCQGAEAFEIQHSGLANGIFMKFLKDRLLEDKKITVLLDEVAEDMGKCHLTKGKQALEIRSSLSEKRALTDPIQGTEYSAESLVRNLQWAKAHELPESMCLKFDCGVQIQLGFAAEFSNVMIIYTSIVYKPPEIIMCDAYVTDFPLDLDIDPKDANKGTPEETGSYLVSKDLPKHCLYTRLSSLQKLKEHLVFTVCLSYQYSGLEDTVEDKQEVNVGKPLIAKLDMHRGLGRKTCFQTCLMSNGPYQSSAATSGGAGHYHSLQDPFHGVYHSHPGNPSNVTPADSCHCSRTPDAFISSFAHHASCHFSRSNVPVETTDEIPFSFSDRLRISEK
Kind of data set: MALT1 Biochemical Assay - Version 1 (fluorescence lifetime).
Protocol: The readout parameter is the increase of fluorescence lifetime over time, proportional to enzyme activity.
The assay employs a short peptide substrate labeled with the single fluorophore PT14 as a fluorescence lifetime probe sensitive to the cleavage state of the substrate (PT14: 6-(9-oxo-9H-acridin-10-yl)-hexanoate, AssayMetrics, UK). […] Test compounds were dissolved in 100% (v/v) DMSO or a mixture containing 90% (v/v) DMSO and 10% (v/v) H2O at a stock concentration of 100 mM. Serial dilutions of test compounds were prepared using either 100% (v/v) DMSO or a mixture containing 90% (v/v) DMSO and 10% (v/v) H2O.
where y is the %-inhibition at the inhibitor concentration, x. A1 is the lowest inhibition value, and A2 the maximum inhibition value. The exponent, p, is the Hill coefficient.

Converted amounts (≈) assume the structure as drawn. Read-outs that look alike come from different tables or passages of the source.

With `CO[C@@H](C)c1c(NC(=O)Nc2cnc(-n3nccn3)c(Cl)c2)cnc2cc(Cl)nn12` [Example 5, (S)-1-(5-chloro-6-(2H-1,2,3-triazol-2-yl)pyridin-3-yl)-3-(2-chloro-7-(1-methoxyethyl)pyrazolo[1,5-a]pyrimidin-6-yl)urea], the solubility in data set [1] (Fasted state simulated intestinal fluid (FaSSIF), [pH] 6.59) was 0.0044 mg/mL (≈ 9.82 µM); in data set [1] (Fed state intestinal fluid (FeSSIF), [pH] 6.87) it was 0.0082 mg/mL (≈ 18.3 µM); in data set [1] (Simulated Gastric Fluid (SGF), [pH] 2.55), 0.0168 mg/mL (≈ 37.5 µM); in data set [1] (Water, [pH] 7.39), 0.005 mg/mL (≈ 11.2 µM); in data set [1] (medium of pH 1.2 (composition not named), simulated gastric fluid, pH 1.2, [pH] 1.17), 0.0038 mg/mL (≈ 8.48 µM); in data set [1] (medium of pH 3.0 (composition not named), aqueous buffer, pH 3.0, [pH] 3.14), 0.0052 mg/mL (≈ 11.6 µM). For the same compound, the solubility in data set [1] (medium of pH 4.7 (composition not named), aqueous buffer, pH 4.7, [pH] 4.71) is 0.0048 mg/mL (≈ 10.7 µM); in data set [1] (medium of pH 7.4 (composition not named), aqueous buffer, pH 7.4, [pH] 7.34), 0.004 mg/mL (≈ 8.92 µM); in data set [1] (medium of pH 9.0 (composition not named), aqueous buffer, pH 9.0, [pH] 8.09), 0.0055 mg/mL (≈ 12.3 µM). Further, the IC50 in the data set with Human IL2 promoter came out at 19 nM.
With `CO[C@@H](C)c1c(NC(=O)Nc2cnc(-n3nccn3)c(C#N)c2)cnc2cc(C)nn12` [Example 27, (S)-1-(5-cyano-6-(2H-1,2,3-triazol-2-yl)pyridin-3-yl)-3-(7-(1-methoxyethyl)-2-methylpyrazolo[1,5-a]pyrimidin-6-yl)urea], the IC50 in data set [2] worked out at 8 nM; in the data set with Human IL2 promoter it was 35 nM.
With `CO[C@@H](C)c1c(NC(=O)Nc2ccnc(C(O)C(F)(F)F)c2)cnc2cc(Cl)nn12` (stereo partly drawn) [Example 20, 1-(2-chloro-7-((S)-1-methoxyethyl)pyrazolo [1,5-a]pyrimidin-6-yl)-3-(2-(2,2,2-trifluoro-1-hydroxyethyl)pyridin-4-yl)urea], the IC50 was determined as 9 nM in data set [2] and 101 nM with Human IL2 promoter.
As for `CO[C@@H](C)c1c(NC(=O)Nc2cncc(C(F)F)c2)cnc2cc(F)nn12` [Example 29, (S)-1-(5-(difluoro-methyl)pyridin-3-yl)-3-(2-fluoro-7-(1-methoxyethyl)-pyrazolo[1,5-a]pyrimidin-6-yl)urea], the figures for the half-maximal inhibitory concentration (IC50) (in data set [2]; with Human IL2 promoter) were 50 nM and 135 nM, respectively.
Turning to `COc1ncc(NC(=O)Nc2cnc3cc(Cl)nn3c2[C@H](C)OC)cc1C#N` [Example 16, (S)-1-(2-chloro-7-(1-methoxyethyl)pyrazolo [1,5-a]pyrimidin-6-yl)-3-(5-cyano-6-methoxypyridin-3-yl)urea], the IC50 was determined as 3 nM in data set [2] and 20 nM in the data set on Human IL2 promoter.
Taken in the same sequence, the figures for `CO[C@H](c1c(NC(=O)Nc2cnc(-n3nccn3)c(Cl)c2)cnc2cc(F)nn12)C(C)C` [Example 14, (S)-1-(5-chloro-6-(2H-1,2,3-triazol-2-yl)pyridin-3-yl)-3-(2-fluoro-7-(1-methoxy-2-methylpropyl)pyrazolo [1,5-a]pyrimidin-6-yl)urea] were 3 nM and 6 nM.
For the compound `COCCOc1ncc(Cl)cc1NC(=O)Nc1cnc2cc(Cl)nn2c1[C@H](C)OC` [Example 21, (S)-1-(5-chloro-2-(2-methoxyethoxy)pyridin-3-yl)-3-(2-chloro-7-(1-methoxyethyl)-pyrazolo[1,5-a]pyrimidin-6-yl)urea], the IC50 in data set [2] turned out to be 9 nM; in the data set on Human IL2 promoter it was 47 nM.
`CO[C@@H](C)c1c(NC(=O)Nc2cncc(C(F)(F)F)c2)cnc2cc(F)nn12` [Example 30, (S)-1-(2-fluoro-7-(1-methoxyethyl)pyrazolo [1,5-a]pyrimidin-6-yl)-3-(5-(trifluoro-methyl)pyridin-3-yl)urea]: the results for the IC50 (in data set [2]; in the data set on Human IL2 promoter) were 7 nM and 20 nM, respectively.
As to `CO[C@@H](C)c1c(NC(=O)Nc2cncc(Cl)c2)cnc2cc(F)nn12` [Example 32, (S)-1-(5-chloro-pyridin-3-yl)-3-(2-fluoro-7-(1-methoxyethyl)pyrazolo [1,5-a]pyrimidin-6-yl)urea], the IC50 in data set [2] is 11 nM; in the data set with Human IL2 promoter, 40 nM.
On the same counts, the results for `COCC1(c2c(NC(=O)Nc3ccnc(C#N)c3)cnc3cc(Cl)nn23)CC1` [Example 37, 1-(2-chloro-7-(1-(methoxymethyl)cyclopropyl)pyrazolo [1,5-a]pyrimidin-6-yl)-3-(2-cyanopyridin-4-yl)urea] are 25 nM and 57 nM.
Turning to `CO[C@@H](C)c1c(NC(=O)Nc2cncc(Cl)c2)cnc2cc(Cl)nn12` [Example 35, (S)-1-(2-chloro-7-(1-methoxyethyl)pyrazolo [1,5-a]pyrimidin-6-yl)-3-(5-chloropyridin-3-yl)urea], the IC50 came to 10 nM in data set [2] and 17 nM in the data set with Human IL2 promoter.
Taken in the same sequence, the figures for `CC(=O)N1CC[C@@H](O[C@@H](C)c2c(NC(=O)Nc3cnc(-n4nccn4)c(Cl)c3)cnc3cc(Cl)nn23)C1` [Example 13, 1-(7-((S)-1-(((R)-1-acetylpyrrolidin-3-yl)oxy)ethyl)-2-chloropyrazolo[1,5-a]pyrimidin-6-yl)-3-(5-chloro-6-(2H-1,2,3-triazol-2-yl)pyridin-3-yl)urea] were 23 nM and 88 nM.
As for `C[C@H](O)c1c(NC(=O)Nc2ccnc(C(F)F)c2)cnc2cc(F)nn12` [Example 40, (S)-1-(2-(difluoromethyl)pyridin-4-yl)-3-(2-fluoro-7-(1-hydroxyethyl)pvrazolo[1,5-a]pyrimidin-6-yl)urea], the half-inhibitory concentration (IC50) in data set [2] is 11 nM; in the data set on Human IL2 promoter it was 100 nM.
On the same counts, the results for `COc1ncc(NC(=O)Nc2cnc3cc(F)nn3c2[C@H](C)OC)cc1C#N` [Example 6, (S)-1-(5-cyano-6-methoxypyridin-3-yl)-3-(2-fluoro-7-(1-methoxyethyl)pyrazolo[1,5-a]pyrimidin-6-yl)urea] are 4 nM and 41 nM.
On the same counts, the results for `COc1ncc(NC(=O)Nc2cnc3cc(C)nn3c2[C@H](C)OC)cc1C#N` [Example 24, (S)-1-(5-cyano-6-methoxypyridin-3-yl)-3-(7-(1-methoxyethyl)-2-methylpyrazolo[1,5-a]pyrimidin-6-yl)urea] are 14 nM and 62 nM.
For the compound `CO[C@@H](C)c1c(NC(=O)Nc2cc[n+]([O-])c(C(F)F)c2)cnc2cc(F)nn12` [Example 42, (S)-2-(difluoromethyl)-4-(3-(2-fluoro-7-(1-methoxyethyl)pyrazolo[1,5-a]pyrimidin-6-yl)ureido)pyridine 1-oxide], the values for the IC50 (in data set [2]; in the data set on Human IL2 promoter) were 96 nM and 729 nM, respectively.
Consider `CO[C@@H](C)c1c(NC(=O)Nc2ccnc(C#N)c2)cnc2cc(F)nn12` [Example 23, (S)-1-(2-cyanopyridin-4-yl)-3-(2-fluoro-7-(1-methoxyethyl)pyrazolo [1,5-a]pyrimidin-6-yl)urea], for which the IC50 came to 16 nM in data set [2] and 42 nM in the data set with Human IL2 promoter.

Usually IC50 stands for the concentration that inhibits the measured activity by half.
